The text below walks through data of ChEMBL document CHEMBL4483862, “Open-source discovery of chemical leads for next-generation chemoprotective antimalarials” (2018).

The assay has as its system Plasmodium berghei. The assay can be described thus: Luciferase/luciferin-expressing antifolate-resistant parasites were used to infect a culture of HepG2 cells that were pre-incubated with compounds. Infected hepatocytes emit light due to the luciferase reaction. Assay results are presented as the percent inhibition of light emission compared to control. […]. It counts as functional. To be noted: sporozoite; for IC90: read-out: LUCIFERASE INFECTION ASSAY - IC90.

[1] abbreviates: read-out: LUCIFERASE INFECTION ASSAY - IC50.

The term IC50 denotes the concentration that inhibits the measured activity by half. The term IC90 denotes the concentration at which the effect reaches the 90% level.

`Cc1cccc(C(=O)Nc2nnc(SCc3ccc(C#N)cc3)s2)n1`: the IC90 stood at 6.71 µM. The IC50 (FFLUC_HILL_SLOPE 1.7, FFLUC_R_SQUARED 0.312, PBLUC_HILL_SLOPE 60.1, PBLUC_R_SQUARED 0.803, read-out: LUCIFERASE INFECTION ASSAY - IC50) was 6.47 µM. As for `CCn1c(=O)n(CC(=O)Nc2ccc(NC(=O)NC3CC3)cc2)c2ccccc21`, the IC90 is over 10 µM. In addition, the IC50 under setting [1] was over 10 µM. With `Oc1c(C(c2ccc(Cl)cc2)c2cc(Cl)c3cccnc3c2O)cc(Cl)c2cccnc12`, the IC90 came out at 2.32 µM. Further, the IC50 (FFLUC_HILL_SLOPE 4.28, FFLUC_R_SQUARED 0.979, HEPG2TOX_HILL_SLOPE 0.496, HEPG2TOX_R_SQUARED 0.799, PBLUC_HILL_SLOPE 1.82, PBLUC_R_SQUARED 0.848, read-out: LUCIFERASE INFECTION ASSAY - IC50) amounted to 0.693 µM. In the case of `Nc1ccc(-c2cn3c(-c4ccc(O)cc4)cnc3cn2)cn1`, the IC90 is over 10.9 µM. The IC50 (PBLUC_HILL_SLOPE 11.6, PBLUC_R_SQUARED 0.257, read-out: LUCIFERASE INFECTION ASSAY - IC50) was found to be 10.2 µM. Regarding `CCOc1ccc(CN(C)c2cc(-c3ccccc3)c3ccccc3n2)cc1OC`, the IC90 was over 10 µM. Further, under setting [1], the IC50 was over 10 µM. With `O=C(Nc1ncccc1O)c1ccc(Cn2cccn2)cc1`, the IC90 came to 3.1 µM. For the same compound, the IC50 (PBLUC_HILL_SLOPE 2.35, PBLUC_R_SQUARED 0.554, read-out: LUCIFERASE INFECTION ASSAY - IC50) was determined as 1.22 µM.

Take `COC(=O)c1cccc(NC(S)=Nc2ccc(Cl)c(Cl)c2)c1`: the IC90 is over 9.29 µM. Moreover, the IC50 under setting [1] was over 9.29 µM.

`Cc1ccc(S(=O)(=O)NNC(=O)COc2ccc(SC(F)(F)F)cc2)cc1`: the IC90 is over 7.85 µM. The IC50 (PBLUC_HILL_SLOPE 0.658, PBLUC_R_SQUARED 0.0672, read-out: LUCIFERASE INFECTION ASSAY - IC50) is over 7.85 µM. As to `COc1ccc(/C=C2\CCCc3c2nc2ccccc2c3C(=O)OCc2cccc(C(F)(F)F)c2)cc1OC`, the IC90 is over 10 µM. The IC50 under setting [1] was over 10 µM.

Take `O=C1NC2=C(C(=O)N(CCC3=CCCCC3)C2)C(c2ccc(F)cc2)N1` (centres undefined): the concentration for an effect of 90% (IC90) was over 10 µM. The IC50 under setting [1] was over 10 µM.

For the compound `Cc1nn(CC(=O)NC(C)c2cc3ccccc3o2)c(C)c1S(=O)(=O)N1CCc2ccccc21` (centres undefined), the IC90 was over 10 µM. In addition, the IC50 under setting [1] was over 10 µM.

As for `O=C(Nn1cn[nH]c1=S)c1ccc2ccccc2n1`, the IC90 is over 10 µM. For the same compound, the IC50 (HEPG2TOX_HILL_SLOPE 3, HEPG2TOX_R_SQUARED 0.551, PBLUC_HILL_SLOPE 3.2, PBLUC_R_SQUARED 0.429, read-out: LUCIFERASE INFECTION ASSAY - IC50) turned out to be 5.8 µM. For the compound `CN(C)CCN1CCN(c2cccc(-c3ccc(-c4ccccc4)cc3)n2)CC1`, the IC90 is over 8.54 µM. Moreover, under setting [1], the IC50 stood at 5.35 µM. Taken in the same sequence, the figures for `COc1cccc(-c2csc(-c3nnc4n3-c3ccccc3SC4)n2)c1` were 3.9 µM and 2.69 µM. Turning to `O=S(=O)(c1ccc(Cl)cc1)c1nc(/C=C/c2ccccc2)oc1NCc1ccco1`, the IC90 came out at 9.82 µM. For the same compound, for the setting “PBLUC_HILL_SLOPE 32.9, PBLUC_R_SQUARED 0.0875, read-out: LUCIFERASE INFECTION ASSAY - IC50”, the IC50 was 9.18 µM. As to `CSc1nccc(-c2ccc(Cl)cc2)n1`, the IC90 is over 13.9 µM. In addition, under “FFLUC_HILL_SLOPE 5.64, FFLUC_R_SQUARED 0.137, read-out: LUCIFERASE INFECTION ASSAY - IC50”, the IC50 is over 13.9 µM. `O=C(Nc1ccc(N2CCOCC2)cn1)c1ccccc1`: the IC90 was over 10 µM.

For `CCN(CC)S(=O)(=O)c1ccc(N2CCOCC2)c(NC(=O)c2oc3ccccc3c2C)c1`, the IC90 was 9.03 µM. Under “PBLUC_HILL_SLOPE 2.77, PBLUC_R_SQUARED 0.561, read-out: LUCIFERASE INFECTION ASSAY - IC50”, the 50% inhibitory concentration (IC50) stood at 4.08 µM. Regarding `Cc1nc(-c2ccc3c(c2)CCN3C(=O)C2(C)Cc3ccccc3C(=O)O2)cs1` (centres undefined), the IC90 was over 10 µM. Besides, the IC50 (PBLUC_HILL_SLOPE 2.39, PBLUC_R_SQUARED 0.602, read-out: LUCIFERASE INFECTION ASSAY - IC50) was determined as 4.47 µM. For `O=C(Nc1nc2ccccc2[nH]1)c1oc2ccccc2c1COc1ccccc1`, the IC90 was over 10 µM. Further, the IC50 under setting [1] is over 10 µM. In the case of `CN(C)c1ccc(-c2cnc3cnc(-c4ccccc4N(C)C)cn23)cc1`, the IC90 is 0.0642 µM. Moreover, the IC50 (HEPG2TOX_HILL_SLOPE 0.323, HEPG2TOX_R_SQUARED 0.566, PBLUC_HILL_SLOPE 1.8, PBLUC_R_SQUARED 0.657, read-out: LUCIFERASE INFECTION ASSAY - IC50) came to 0.0189 µM.

`O=C(NNC(=O)c1ccc(CSc2ccc(C(F)(F)F)cn2)o1)c1ccc(Cl)cc1`: the IC90 is over 7.24 µM. Under setting [1], the IC50 was over 7.24 µM. As for `CNc1nc2cnc(Nc3ccc(C(F)(F)F)cc3)cc2n1CC1CC1`, the IC90 was over 10 µM. Where the note is “PBLUC_HILL_SLOPE 1.2, PBLUC_R_SQUARED 0.377, read-out: LUCIFERASE INFECTION ASSAY - IC50”, the IC50 was 2.12 µM. For the compound `O=C(OCc1cc(=O)oc2cc(O)ccc12)c1ccc(Cl)c(S(=O)(=O)N2CCCCCC2)c1`, the IC90 is over 10 µM. Also, the IC50 (PBLUC_HILL_SLOPE 24.9, PBLUC_R_SQUARED 0.0553, read-out: LUCIFERASE INFECTION ASSAY - IC50) stood at 9.36 µM. For the compound `COc1cc(C(=O)c2c(C)c(CCC#N)n3ccccc23)cc(OC)c1OC`, the IC90 was 6.92 µM. For the same compound, the IC50 under setting [1] turned out to be 2 µM.

As for `C=S(=O)(NC(=O)c1ccc(-c2cc(C(F)(F)F)nn2C)s1)c1ccc(C)cc1` (centres undefined), the IC90 is over 7.72 µM. Also, the IC50 under setting [1] is over 7.72 µM. For `COc1ccc(C(=O)Nc2nc3ccccc3[nH]2)cc1`, the IC90 is over 10 µM. Also, the IC50 (HEPG2TOX_HILL_SLOPE 4.46, HEPG2TOX_R_SQUARED 0.552, PBLUC_HILL_SLOPE 2.95, PBLUC_R_SQUARED 0.511, read-out: LUCIFERASE INFECTION ASSAY - IC50) was 7.58 µM. Regarding `CC(C)(C)c1n[nH]c2c(-c3nc4ccccc4s3)c(N)nn2c1=O`, the IC90 came to 5.67 µM. Under “HEPG2TOX_HILL_SLOPE 1.58, HEPG2TOX_R_SQUARED 0.969, PBLUC_HILL_SLOPE 3.76, PBLUC_R_SQUARED 0.505, read-out: LUCIFERASE INFECTION ASSAY - IC50”, the IC50 amounted to 3.16 µM. As for `Cc1ccc(Nc2cc(C)nc3c(-c4ccccc4)cnn23)cc1`, the concentration for an effect of 90% (IC90) is over 10.5 µM. Further, where the note is “FFLUC_HILL_SLOPE 0.324, FFLUC_R_SQUARED 0.749, HEPG2TOX_HILL_SLOPE 3.12, HEPG2TOX_R_SQUARED 0.973, read-out: LUCIFERASE INFECTION ASSAY - IC50”, the IC50 is over 10.5 µM.

For `c1ccn2c(Sc3ncnc4ccsc34)nnc2c1`, the IC90 was over 10 µM. Also, the IC50 (HEPG2TOX_HILL_SLOPE 1.03, HEPG2TOX_R_SQUARED 0.779, PBLUC_HILL_SLOPE 16.5, PBLUC_R_SQUARED 0.198, read-out: LUCIFERASE INFECTION ASSAY - IC50) came to 9.21 µM. `Oc1ccc(/C=C/c2ccc3cccc(O)c3n2)cc1`: the IC90 was 5.07 µM. Further, the IC50 (HEPG2TOX_HILL_SLOPE 13.8, HEPG2TOX_R_SQUARED 0.969, PBLUC_HILL_SLOPE 21.8, PBLUC_R_SQUARED 0.339, read-out: LUCIFERASE INFECTION ASSAY - IC50) amounted to 4.58 µM.

As for `CCOC(=O)c1cc(C#N)c(N2CCN(C(=O)Nc3cccc(C(F)(F)F)c3)CC2)nc1C(F)(F)F`, the IC90 is over 6.4 µM. Also, the IC50 (PBLUC_HILL_SLOPE 16, PBLUC_R_SQUARED 0.406, read-out: LUCIFERASE INFECTION ASSAY - IC50) is 6.3 µM. With `N#Cc1cc(NC(=O)c2ccc(Cl)cc2)ccc1Sc1ccccc1`, the IC90 was over 9.04 µM. Also, the IC50 under setting [1] was over 9.04 µM. Take `CCCNC(=O)c1c(NC(=O)c2cccc(Cl)c2)nc2ccccn12`: the IC90 turned out to be 1.11 µM. The IC50 (FFLUC_HILL_SLOPE 126, FFLUC_R_SQUARED 0.738, HEPG2TOX_HILL_SLOPE 0.804, HEPG2TOX_R_SQUARED 0.952, PBLUC_HILL_SLOPE 15.4, PBLUC_R_SQUARED 0.753, read-out: LUCIFERASE INFECTION ASSAY - IC50) was 0.96 µM.

In the case of `Cc1c(S(=O)(=O)c2ccc(Cl)cc2)csc1S(=O)(=O)N1CCOCC1`, the IC90 is over 7.82 µM. Moreover, the IC50 under setting [1] is over 7.82 µM. `O=c1nc(Nc2ccc(SC(F)(F)F)cc2)c2ccccc2o1`: the IC90 came to 0.441 µM. Further, the IC50 (PBLUC_HILL_SLOPE 2.14, PBLUC_R_SQUARED 0.975, read-out: LUCIFERASE INFECTION ASSAY - IC50) was 0.158 µM. As for `COc1ccc(OCCN(C)C(=O)c2ccc(-n3cccn3)cc2)cc1`, the IC90 is over 10 µM. Moreover, the IC50 under setting [1] is over 10 µM.

For the compound `COc1cc(/C=C/C(=O)c2cccc(Cl)c2)cc(Br)c1OCC(=O)N(C)C`, the IC90 came to 4.57 µM. Besides, for the setting “HEPG2TOX_HILL_SLOPE 4.93, 12.4, HEPG2TOX_R_SQUARED 0.976, 0.384, PBLUC_HILL_SLOPE 9.73, 46.2, PBLUC_R_SQUARED 0.151, 0.563, read-out: LUCIFERASE INFECTION ASSAY - IC50”, the IC50 is 3.93 µM. Consider `CC(C)(C)c1cc(NC(=O)Cn2cnc3scc(-c4ccccc4)c3c2=O)on1`, for which the IC90 was over 10 µM. In addition, the IC50 (HEPG2TOX_HILL_SLOPE 6.06, HEPG2TOX_R_SQUARED 0.374, PBLUC_HILL_SLOPE 1.95, PBLUC_R_SQUARED 0.0898, read-out: LUCIFERASE INFECTION ASSAY - IC50) is over 10 µM. For `COc1ccc(CCNC(=S)NC(=O)c2c(-c3ccccc3Cl)noc2C)cc1OC`, the IC90 was over 7.17 µM. The IC50 (PBLUC_HILL_SLOPE 1.8, PBLUC_R_SQUARED 0.103, read-out: LUCIFERASE INFECTION ASSAY - IC50) was over 7.17 µM.
